Here are results for 19 compounds from ChEMBL document CHEMBL1142409, “Synthetic ligands that activate and inhibit a quorum-sensing regulator in Pseudomonas aeruginosa” (Bioorg Med Chem Lett, 2008).

pIC50: −log10 of the molar value. Some results are limits rather than exact numbers.

Assay [1] concerns the target QscR (Pseudomonas aeruginosa). In words: Antagonist activity at Pseudomonas aeruginosa QscR expressed in Escherichia coli assessed as inhibition of dodecanoyl homoserine lactone induced production of beta-galactosidase.
For assay [2], the target named is T1, PhzR (Pseudomonas aeruginosa) (UniProt Q9RMS5).
T1 sequence (whole entry): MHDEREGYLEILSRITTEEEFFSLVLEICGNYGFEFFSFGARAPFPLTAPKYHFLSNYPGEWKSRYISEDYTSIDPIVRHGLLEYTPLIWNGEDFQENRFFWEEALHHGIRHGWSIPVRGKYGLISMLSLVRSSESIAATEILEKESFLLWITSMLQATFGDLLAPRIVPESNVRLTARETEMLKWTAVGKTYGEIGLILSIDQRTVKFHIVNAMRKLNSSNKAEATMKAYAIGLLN
In words: Antagonist activity at Pseudomonas aeruginosa QscR expressed in Escherichia coli assessed as inhibition of dodecanoyl homoserine lactone induced production of beta-galactosidase at 5 uM. The class given is functional.

The target in assay [3] is T2, Transcriptional activator protein LasR (Pseudomonas aeruginosa (strain ATCC 15692 / PAO1 / 1C / PRS 101 / LMG12228)) (UniProt P25084).
T2 sequence (whole entry): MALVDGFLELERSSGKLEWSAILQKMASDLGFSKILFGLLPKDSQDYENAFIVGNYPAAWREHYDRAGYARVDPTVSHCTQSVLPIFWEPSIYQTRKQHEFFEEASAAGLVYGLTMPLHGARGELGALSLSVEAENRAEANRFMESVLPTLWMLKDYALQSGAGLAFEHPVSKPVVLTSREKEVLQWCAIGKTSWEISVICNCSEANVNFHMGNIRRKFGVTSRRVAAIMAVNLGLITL
Description: Inhibition of Pseudomonas aeruginosa LasR. Also on record: concentration or dose not given beside the values. To be noted: concentration not given here.

Assay [4] deals with T1, PhzR (Pseudomonas aeruginosa). Description: Inhibition of binding of Pseudomonas aeruginosa QscR to DNA at 200 uM in presence of 3-oxo-dodecanoyl -L-homoserine lactone by electromobility shift assay.
For the next assay, the target named is T3, (Pseudomonas aeruginosa) (UniProt Q9RMS5).
T3 sequence (whole entry): T1 sequence (whole entry)
Description: Agonist activity at Pseudomonas aeruginosa QscR expressed in Escherichia coli assessed as production of beta-galactosidase at 5 uM relative to dodecanoyl homoserine lactone. The assay is classed as functional.

Regarding `O=C(Cc1ccc(-c2ccccc2)cc1)N[C@H]1CCOC1=O`, in assay [1], the pIC50 is 7.52. Besides, the inhibition in assay [2] stood at 88%; in assay [3] it was 20%; in assay [4] it was 100%.

Consider `CCCCCCCCCCCS(=O)(=O)N[C@H]1CCOC1=O`, for which the Activity on (Pseudomonas aeruginosa) is 51%.

As to `CC(C)(C)OC(=O)Nc1ccc(CC(=O)N[C@H]2CCOC2=O)cc1`, the Activity at (Pseudomonas aeruginosa) is 61%.

Consider `O=C(CC(=O)N[C@@H]1CCOC1=O)Cc1ccccc1`, for which, at (Pseudomonas aeruginosa), the Activity stood at 59%.

On to `CCCCCCCCCC(=O)CC(=O)N[C@H]1CCOC1=O`, for which the Activity on (Pseudomonas aeruginosa) was 109%.

Consider `CCCCCCCCCC(=O)N[C@H]1CCOC1=O`, for which the Activity on (Pseudomonas aeruginosa) amounted to 104%.

On to `CCCCCCCCc1ccc(C(=O)N[C@H]2CCOC2=O)cc1`, for which the inhibition in assay [2] was found to be 76%; in assay [4], 100%.

In the case of `CCCCCCCC(=O)N[C@H]1CCOC1=O`, the Activity on (Pseudomonas aeruginosa) is 59%. In assay [3], this compound returned an inhibition greater than 50%.

Regarding `O=C(Cc1cccc(Br)c1)N[C@H]1CCOC1=O`, the inhibition in assay [2] is 71%; in assay [3] it was 50%.

For the compound `O=C(N[C@H]1CCOC1=O)c1ccc(Br)cc1`, the negative-log IC50 (pIC50) in assay [1] is 6.74. In addition, the inhibition worked out at 78% in assay [2] and 71% in assay [4].

Consider `CCOc1ccc(CC(=O)N[C@H]2CCOC2=O)cc1`, for which the pIC50 in assay [1] is 6.80. Further, the inhibition came out at 75% in assay [2] and 82% in assay [4].

For the compound `O=C(CCc1ccc(Br)cc1)N[C@H]1CCOC1=O`, the Activity on (Pseudomonas aeruginosa) came to 64%. The compound further gave an inhibition in assay [3] greater than 50%.

In the case of `O=C(Cc1cccc(I)c1)N[C@H]1CCOC1=O`, the figures for the inhibition in assay [2] and in assay [3] were 70% and 50%, respectively.

As to `O=C(Cc1cccc(Cl)c1)N[C@H]1CCOC1=O`, the values for the inhibition in assay [2] and in assay [3] were 73% and 50%, respectively.

On to `CC(C)(C)OC(=O)NCc1ccc(C(=O)N[C@H]2CCOC2=O)cc1`, for which the pIC50 in assay [1] was 6.70. Moreover, the inhibition turned out to be 77% in assay [2] and 59% in assay [4].

`CCCc1ccc(C(=O)CCC(=O)N[C@H]2CCOC2=O)cc1`: the Activity on (Pseudomonas aeruginosa) amounted to 54%.

Take `CCCCCC(=O)CC(=O)N[C@H]1CCOC1=O`: the Activity on (Pseudomonas aeruginosa) was found to be 74%. For the same compound, in assay [3], the inhibition is greater than 50%.

With `O=C(Cc1cccc([N+](=O)[O-])c1)N[C@H]1CCOC1=O`, the results for the inhibition in assay [2] and in assay [3] were 71% and 50%, respectively.

As for `CCCCCCCCCCCC(=O)CC(=O)N[C@H]1CCOC1=O`, the Activity at (Pseudomonas aeruginosa) amounted to 78%.

The term pIC50 denotes the negative decadic logarithm of the IC50, by convention in mol/L. A word on the inhibition: it is how much of the control response was suppressed.
